In one assay the test system is B1 B-ALL cell line. Put plainly: Cytotoxicity assay, B1. Particulars: Homo sapiens, 96 h, four days in culture, Alamar blue assay or automated microscopy, ± SD, three experiments. The assay is classed as cell-based, human. As to the method: (§1) Cell lines were cultured in Opti-MEM medium (Gibco, Life Technologies Corporation, Burlington, Ontario) supplemented with 10% heat inactivated fetal bovine serum (FBS) (Gibco), 100 units/ml penicillin and 100 units/ml streptomycin (Gibco) and 0.05 mM 2-mercaptoethanol (Sigma-Aldrich, Oakville, Ontario) in T25 flasks (Nalge Nunc, Rochester, New York) or T75 flasks (Corning Incorporated, Corning, New York). All cell cultures were maintained at 37°C in a humidified incubator with 5% CO2.
(§2) For cytotoxicity profiling of Aurora kinase inhibitors against leukemia cell lines, inhibitors or vehicle control (DMSO, Sigma-Aldrich) were diluted in 100 µl of Opti-MEM per well in 96 well plates (Grenier Bio-One, Monroe, North Carolina) in triplicate at final concentrations ranging from 1×10^−6 to 10 µM. 1×10^4 cells per well were seeded and plates were incubated for 4 days. Following incubation for 4 days, cell survival was quantified by Alamar blue assay (Invitrogen) or automated inverted microscopy using the Celigo Cell Cytometer (Cyntellect, San Diego, California). […] During this period of incubation, the absorbance at 570–620 nm was measured (Opsys MR Plate Reader, Dynex Technologies, Chantilly, Virginia) at various time points, depending on the cell line or sample. Percent survival was calculated by comparing the absorbance ratio of the test well to the control well multiplied by 100%, as indicated in the following formula: […]
(§3) For automated inverted microscopy, the number of cells in each well was determined using the direct cell counting application as described previously. Briefly, following adjustment of image acquisition settings for bright-field imaging, the wells containing cells and appropriate dilutions of inhibitors were individually scanned. Based on these images, analysis parameters, including intensity threshold and cell diameter, were modified for optimal inclusion of viable cells in treated and control wells. These parameters were applied for subsequent replicates involving the same leukemia cell line or sample. The percent survival was then calculated as a ratio of the number of cells in treated wells to the number of cells in control wells multiplied by 100%. Given that Aurora kinase inhibitors interfere with cytokinesis, cells that are committed to death may still contain enlarging but intact cytoplasmic content before the eventual loss of cytoplasmic membrane integrity. The accuracy of Alamar blue assay may be, in theory, affected by the timing of these events.

In another assay the test system is HL-60 APML cell line. The experiment in a line: Cytotoxicity assay, HL-60. Format: cell-based, human. As to conditions: Homo sapiens, 96 h; APML cell line HL-60; four days in culture; Alamar blue assay or automated microscopy; ± SD, three experiments. As to the method:
as §1, §2, §3

In the next assay the test system is MV4-11 AML cell line. Put plainly: Cytotoxicity assay, MV4-11. The assay is classed as cell-based, human. Particulars: Homo sapiens, 96 h; AML cell line MV4-11; four days in culture; Alamar blue assay or automated microscopy; ± SD, three experiments. As to the method: as §1, §2, §3
The next assay has as its system Molm13 AML cell line. The experiment in a line: Cytotoxicity assay, Molm13. Format: cell-based, human. As to conditions: Homo sapiens, MOLM-13, 96 h, four days in culture, Alamar blue assay or automated microscopy, ± SD, three experiments. The procedure: as §1, §2, §3
For orientation: Resazurin is reduced to fluorescent resorufin, in cell work by metabolically active cells.

Assay [1] relates to normal cells versus leukemia cell lines. The experiment in a line: Comparison of cytotoxicity IC50 values, normal cells versus leukemia cell lines. Particulars: normal lymphocytes and bone marrow stroma versus leukemia cell lines of Table 2. The assay is classed as cell-based, human. As to the method:
as §2, §3

Another assay concerns Normal Lymphocytes. Put plainly: Cytotoxicity assay, normal lymphocytes. Format: cell-based, human. As to conditions: Homo sapiens, Lymphocyte, 96 h; normal lymphocytes (control for non-leukemia cytotoxicity); four days in culture; ± SD, three experiments. As to the method:
(§4) These include B-ALL (Patient #1), relapsed AML (Patient #2), AML/CML (Patient #3), infant ALL (Patient #4), and initial ALL presenting with secondary AML (Patient #5). […] The diluted sample was then layered on a Ficoll-Paque (GE Healthcare, Piscataway, New Jersey) gradient at a 1∶2 ratio of Ficoll to diluted sample. Samples were then centrifuged 1800 rpm for 20 minutes at room temperature. The buffy coat was removed with a pipette and transferred to a new centrifuge tube and diluted with PBS. After an additional centrifugation at 1200 rpm, the white blood cell pellet was washed with PBS and centrifuged one last time. Cells were re-suspended in Opti-MEM and viable cells were counted using trypan blue (Invitrogen, Life Technologies Corporation, Burlington, Ontario) exclusion on a haemocytometer. An identical protocol was followed for the isolation of white blood cells, referred to as “normal lymphocytes” in the following paragraphs, from healthy volunteers. Samples grown in culture for up to six months were cultured in Opti-MEM medium supplemented with 10% heat inactivated FBS, penicillin/streptomycin and 2-mercaptoethanol.
as §2, §3

For assay [2], the system named is Patient #5 ALL/AML primary leukemia cells. The experiment in a line: Cytotoxicity assay, primary sample Patient #5. Particulars: Homo sapiens, 96 h, read-out: IC50, Patient #5 ALL/AML. The assay is classed as cell-based, human. As to the method:
as §4, §2, §3

In the next assay the test system is Bone Marrow Stroma. The experiment in a line: Cytotoxicity assay, bone marrow stroma. Format: cell-based, human. As to conditions: Homo sapiens, 96 h; bone marrow stroma (control for non-leukemia cytotoxicity); four days in culture; ± SD, three experiments. As to the method: as §2, §3
The next assay deals with Nalm6 B-ALL cell line. Put plainly: Cytotoxicity assay, Nalm6. Particulars: Homo sapiens, NALM-6, 96 h, four days in culture, Alamar blue assay or automated microscopy, ± SD, three experiments. The assay is classed as cell-based, human. As to the method: as §1, §2, §3
The test system of a further assay is CEM T-ALL cell line. The experiment in a line: Cytotoxicity assay, CEM. Format: cell-based, human. As to conditions: Homo sapiens, 96 h, four days in culture, Alamar blue assay or automated microscopy, ± SD, three experiments. The procedure:
as §1, §2, §3

The test system of assay [3] is Patient #3 AML/CML primary leukemia cells. The experiment in a line: Cytotoxicity assay, primary sample Patient #3. The assay is classed as cell-based, human. As to conditions: Homo sapiens, 96 h, four days in culture, Alamar blue assay or automated microscopy, one complete study. The procedure: as §4, §2, §3
The test system of the next assay is HL-60 RA APML cell line. Put plainly: Cytotoxicity assay, HL-60 RA. As to conditions: Homo sapiens, 96 h; APML cell line HL-60 RA; four days in culture; Alamar blue assay or automated microscopy; ± SD, three experiments. Format: cell-based, human. As to the method:
as §1, §2, §3

Assay [4] deals with Patient #2 relapsed AML primary leukemia cells. The experiment in a line: Cytotoxicity assay, primary sample Patient #2. The assay is classed as cell-based, human. As to conditions: Homo sapiens, 96 h, four days in culture, Alamar blue assay or automated microscopy, one complete study. As to the method:
as §4, §2, §3

In another assay the test system is C1 B-ALL cell line. Put plainly: Cytotoxicity assay, C1. As to conditions: Homo sapiens, 96 h, four days in culture, Alamar blue assay or automated microscopy, ± SD, three experiments. Format: cell-based, human. As to the method:
as §1, §2, §3

The test system of the next assay is NB4 APML cell line. The experiment in a line: Cytotoxicity assay, NB4. Format: cell-based, human. As to conditions: Homo sapiens, 96 h, four days in culture, Alamar blue assay or automated microscopy, ± SD, three experiments. The procedure:
as §1, §2, §3

Another assay relates to UOCB1 B-ALL cell line. The experiment in a line: Cytotoxicity assay, UOCB1. As to conditions: Homo sapiens, UoC-B1, 96 h, four days in culture, Alamar blue assay or automated microscopy, ± SD, three experiments. The assay is classed as cell-based, human. The procedure: as §1, §2, §3
For the next assay, the system named is Molt-3 T-ALL cell line. Put plainly: Cytotoxicity assay, Molt-3. As to conditions: Homo sapiens, 96 h; T-ALL cell line Molt-3; four days in culture; Alamar blue assay or automated microscopy; ± SD, three experiments. Format: cell-based, human. As to the method: as §1, §2, §3
In the next assay the test system is SEM B-ALL cell line. The experiment in a line: Cytotoxicity assay, SEM. Format: cell-based. Particulars: Homo sapiens, 96 h, four days in culture, Alamar blue assay or automated microscopy, ± SD, three experiments. The procedure:
as §1, §2, §3

In assay [5] the test system is Patient #1 B-ALL primary leukemia cells. The experiment in a line: Cytotoxicity assay, primary sample Patient #1. Format: cell-based, human. As to conditions: Homo sapiens, 96 h, four days in culture, Alamar blue assay or automated microscopy, one complete study. The procedure: as §4, §2, §3
Another assay concerns KOPN8 B-ALL cell line. Put plainly: Cytotoxicity assay, KOPN8. Format: cell-based, human. As to conditions: Homo sapiens, KOPN-8, 96 h, four days in culture, Alamar blue assay or automated microscopy, ± SD, three experiments. The procedure:
as §1, §2, §3

A further assay deals with TIB-202 AML cell line. Put plainly: Cytotoxicity assay, TIB-202. Format: cell-based, human. As to conditions: Homo sapiens, 96 h; AML cell line TIB-202; four days in culture; Alamar blue assay or automated microscopy; ± SD, three experiments. The procedure:
as §1, §2, §3

Assay [6] concerns Patient #4 infant leukemia primary cells. The experiment in a line: Cytotoxicity assay, primary sample Patient #4. Particulars: Homo sapiens, 96 h, four days in culture, Alamar blue assay or automated microscopy, one complete study. The assay is classed as cell-based, human. As to the method:
as §4, §2, §3

The text below walks through data of article PMC4105567, “Aurora Kinases as Druggable Targets in Pediatric Leukemia: Heterogeneity in Target Modulation Activities and Cytotoxicity by Diverse Novel Therapeutic Agents” (PLoS ONE, 2014).

Like-named read-outs stand apart in the source and are kept apart here. Some results are limits rather than exact numbers.

With `Cc1cc(Nc2cc(N3CCN(C)CC3)nc(/C=C/c3ccccc3)n2)n[nH]1` [ENMD-2076], the IC50 was 1 ± 0.3 µM in the assay on B1 B-ALL cell line; 0.7 ± 0.09 µM with HL-60 APML cell line; 0.001 ± 0.0001 µM with MV4-11 AML cell line; 0.04 ± 0.02 µM in the assay with Molm13 AML cell line; 5 ± 3 µM in the assay on Normal Lymphocytes; 0.03 µM in [2] (primary sample, four days in culture, Alamar blue assay or automated microscopy, one complete study). Also, the IC50 was 3 ± 1 µM in the assay with Bone Marrow Stroma; 0.2 ± 0.1 µM in the assay with Nalm6 B-ALL cell line; 0.6 ± 0.05 µM in the assay with CEM T-ALL cell line; 4 µM in [3]; 0.7 ± 0.2 µM in the assay on HL-60 RA APML cell line; 0.008 µM in assay [4]. In addition, the IC50 with C1 B-ALL cell line amounted to 0.7 ± 0.2 µM; with NB4 APML cell line, 1 ± 0.6 µM; in the assay on UOCB1 B-ALL cell line it was 1 ± 0.5 µM; in the assay on Molt-3 T-ALL cell line it was 0.8 ± 0.05 µM; in the assay on SEM B-ALL cell line, 0.5 ± 0.4 µM; in assay [5] it was 0.1 µM. The IC50 in the assay with KOPN8 B-ALL cell line turned out to be 0.6 ± 0.3 µM; in the assay with TIB-202 AML cell line, 0.8 ± 0.2 µM; in assay [6], 10 µM. Besides, the “IC50 values for the normal cells compared with IC50 values for the leukemia cell lines (potential therapeutic window)” value in assay [1] is “lower than the IC50 values for the normal cells, but not as pronounced”.
On to `Nc1nc(Nc2ccc(S(N)(=O)=O)cc2)nn1C(=O)c1c(F)cccc1F` [JNJ-7706621], for which the IC50 in the assay with B1 B-ALL cell line amounted to 1 ± 0.1 µM; in the assay on HL-60 APML cell line it was 5 ± 2 µM; in the assay with MV4-11 AML cell line, 0.8 ± 0.09 µM; in the assay with Molm13 AML cell line, 2 ± 0.6 µM; in the assay with Normal Lymphocytes, 7 ± 0.5 µM; in assay [2] it was 0.0005 µM. Further, the IC50 in the assay on Bone Marrow Stroma was 7 ± 0.8 µM; with Nalm6 B-ALL cell line, 1 ± 0.1 µM; in the assay on CEM T-ALL cell line it was 0.3 ± 0.2 µM; in assay [3], > 10 µM; in the assay with HL-60 RA APML cell line, 0.8 ± 0.1 µM; in assay [4], 0.7 µM. Besides, the IC50 came to 1 ± 0.5 µM in the assay on C1 B-ALL cell line; 2 ± 0.9 µM in the assay with NB4 APML cell line; 0.2 ± 0.09 µM with UOCB1 B-ALL cell line; 0.7 ± 0.1 µM in the assay on Molt-3 T-ALL cell line; 0.7 ± 0.3 µM in the assay on SEM B-ALL cell line; 1 µM in assay [5]. In addition, the IC50 worked out at 0.4 ± 0.08 µM in the assay with KOPN8 B-ALL cell line, 3 ± 1 µM in the assay on TIB-202 AML cell line and 8 µM in assay [6]. For the same molecule, in assay [1], the “IC50 values for the normal cells compared with IC50 values for the leukemia cell lines (potential therapeutic window)” value is “lower than the IC50 values for the normal cells, but not as pronounced”.
